In US10835542B2, “9-aminomethyl minocycline compounds and use thereof in treating community-acquired bacterial pneumonia (CABP)” (Paratek Pharmaceuticals, Inc., priority 2016, dated 2020):

Assays:
[1] = Safety assessments in the multiple iv dose BAL study, healthy adult subjects; format: in vivo, human; details: 5 doses of 100 mg iv
Experimental: Safety assessments included physical examinations, electrocardiograms (ECG), vital signs, standard clinical laboratory evaluations (blood chemistry, hematology), pregnancy testing, and adverse event (AE) and serious adverse event (SAE) monitoring.
Any subject who received at least 1 dose of test article was included in the evaluation for safety. Safety was assessed by the following measures: Physical exams; AEs and SAEs; Vital signs; Laboratory assessments (Blood samples for hematology, chemistry, and coagulation (prothrombin time only)); ECG; and Pregnancy assessments.
Subjects were analyzed according to the treatment actually received.

cSSSI = assay: Phase 2 and Phase 3 studies in complicated skin and skin structure infection (cSSSI); format: in vivo, human
[2] = Phase 1 multiple oral dose study: urine PK; format: in vivo, human
Experimental: Urine samples were only collected from a subset of subjects because analysis of urine PK was added by an amendment to the study protocol after the study was already underway.
Additional parameters Ae0-4, Ae4-8, Ae8-12, Ae12-24, and Ae0-24 were also calculated.

[3] = test system: Haemophilus parainfluenzae; assay: Clinical success at PTE by baseline pathogen, microITT; format: in vivo, human; details: N1 = 18 (Compound 1), 17 (Moxifloxacin)
Legionella pneumophila = format: in vivo, human; details: PTE, microITT; baseline pathogen Legionella pneumophila (culture, serology and/or urinary antigen); N1 = 37 (Compound 1), 37 (Moxifloxacin)
Chlamydophila pneumoniae = assay: Clinical success at PTE by baseline pathogen, microITT; format: in vivo, human; details: N1 = 28 (Compound 1), 28 (Moxifloxacin)
Escherichia coli = assay: as above; format: in vivo, human; details: N1 = 6 (Compound 1), 7 (Moxifloxacin)
[4] = Phase 1 multiple oral dose (300, 450, 600 mg) study: plasma PK, healthy adult subjects; details: for exposure (dose-normalized AUC0-24) as % of that predicted if perfectly dose-proportional: 300 mg to 600 mg; for AUC(0-t): human, in vivo, po

## CN(C)c1cc(CNCC(C)(C)C)c(O)c2c1C[C@H]1C[C@H]3[C@H](N(C)C)C(O)=C(C(N)=O)C(=O)[C@@]3(O)C(O)=C1C2=O [Compound 1, 9-[(2,2-dimethyl-propylamino)-methyl]-minocycline]
[1]
  Treatment-emergent adverse events (TEAEs) reported: 29%
  changes in vital signs, laboratory or ECG parameters: no clinically significant changes
  discontinuations due to TEAEs: no discontinuations due to TEAEs
  most common TEAE: headache: 12%
  severe or serious TEAEs: no severe or serious TEAEs
cSSSI; Phase 2 (219 subjects) and terminated Phase 3 (143 subjects)
  tolerability in cSSSI studies: well-tolerated
cSSSI; versus comparator linezolid
  efficacy in cSSSI studies: efficacy similar to an established comparator (linezolid)
[2]; 300 mg, Day 1 (n = 2)
  Ae0-24, Mean (CV): 20.37 (8.3) mg
  Fe0-24, Mean (CV): 6.79 (8.3) %
[2]; 300 mg, Day 5 (n = 3)
  Ae0-24, Mean (CV): 26.14 (14.6) mg
  Fe0-24, Mean (CV): 8.71 (14.6) %
[2]; 450 mg, Day 5 (n = 5)
  Ae0-24, Mean (CV): 30.81 (33.0) mg
  Fe0-24, Mean (CV): 6.85 (33.0) %
[2]; 600 mg, Day 1 (n = 1)
  Ae0-24, Mean (CV): 31.96 mg
  Fe0-24, Mean (CV): 5.33%
[2]; 600 mg, Day 5 (n = 4)
  Ae0-24, Mean (CV): 51.82 (14.8) mg
  Fe0-24, Mean (CV): 8.64 (14.8) %
[3]
  Clinical Success n (%): 15 (83.3) n (%)
Legionella pneumophila
  Clinical Success n (%): 35 (94.6) n (%)
Chlamydophila pneumoniae
  Clinical Success n (%): 25 (89.3) n (%)
Escherichia coli
  Clinical Success n (%): 4 (66.7) n (%)
ITT population
  Total number of deaths: 8
Phase 3 CABP
  severity of gastrointestinal (GI) adverse events (vomiting, nausea, diarrhea, dyspepsia): mild
Safety population
  Subjects who died: 8 (2.1) n (%)
  Subjects with at least one Adverse Event (AE): 170 (44.5) n (%)
  Subjects with at least one Drug-Related Serious TEAE: 2 (0.5) n (%)
  Subjects with at least one Drug-Related TEAE: 39 (10.2) n (%)
  Subjects with at least one Serious TEAE: 23 (6.0) n (%)
  Subjects with at least one Serious TEAE Leading to Death: 8 (2.1) n (%)
  Subjects with at least one Serious TEAE Leading to Premature Discontinuation of Test Article: 10 (2.6) n (%)
  Subjects with at least one Severe TEAE: 25 (6.5) n (%)
  Subjects with at least one TEAE: 157 (41.1) n (%)
  Subjects with at least one TEAE Leading to Dose Interruption: 0 n (%)
  Subjects with at least one TEAE Leading to Premature Discontinuation of Study: 7 (1.8) n (%)
  Subjects with at least one TEAE Leading to Premature Discontinuation of Test Article: 21 (5.5) n (%)
  TEAE leading to study drug discontinuation: Diarrhoea: 0 n (%)
  TEAE leading to study drug discontinuation: Dyspepsia: 0 n (%)
  TEAE leading to study drug discontinuation: Gastrointestinal Disorders: 2 (0.5) n (%)
  TEAE leading to study drug discontinuation: Nausea: 1 (0.3) n (%)
  TEAE leading to study drug discontinuation: Vomiting: 2 (0.5) n (%)
  TEAE: Alanine Aminotransferase Increased: 14 (3.7) n (%)
  TEAE: Aspartate Aminotransferase Increased: 8 (2.1) n (%)
  TEAE: Clostridium Difficile Colitis: 0 n (%)
  TEAE: Clostridium Difficile Infection: 0 n (%)
  TEAE: Constipation: 9 (2.4) n (%)
  TEAE: Diarrhoea: 4 (1.0) n (%)
  TEAE: Dyspepsia: 4 (1.0) n (%)
  TEAE: Gamma-Glutamyltransferase Increased: 10 (2.6) n (%)
  TEAE: Headache: 8 (2.1) n (%)
  TEAE: Hypertension: 13 (3.4) n (%)
  TEAE: Insomnia: 10 (2.6) n (%)
  TEAE: Nausea: 9 (2.4) n (%)
  TEAE: Pseudomembranous Colitis: 0 n (%)
  TEAE: Vomiting: 10 (2.6) n (%)
  Total Number of AEs: 434
  Total Number of TEAEs: 376
[4]; Day 1
  exposure (dose-normalized AUC0-24) as % of that predicted if perfectly dose-proportional: 76%
[4]; Day 5
  exposure (dose-normalized AUC0-24) as % of that predicted if perfectly dose-proportional: 88%
[4]; Day 1, 300 mg
  Cmax/Dose Geometric LS Means: 2.09 ng/mL/mg
[4]; Day 1, 450 mg
  Cmax/Dose Geometric LS Means: 1.81 ng/mL/mg
[4]; Day 1, 600 mg
  Cmax/Dose Geometric LS Means: 1.54 ng/mL/mg
[4]; Day 5, 300 mg
  Cmax/Dose Geometric LS Means: 2.62 ng/mL/mg
[4]; Day 5, 450 mg
  Cmax/Dose Geometric LS Means: 2.32 ng/mL/mg
[4]; Day 5, 600 mg
  Cmax/Dose Geometric LS Means: 2.11 ng/mL/mg
[4]; all tested dose levels
  systemic exposure on Day 5 higher than on Day 1: ~50%
[4]; 300 mg
  AUC(0-t): 9270 ng·h/mL
[4]; 450 mg
  AUC(0-t): 8980 ng·h/mL
